# Laboratory results taken from patent US7435431B2, “Method for controlling body weight in estrogen-insufficient women” (Abbott Laboratories, priority 2004, dated 2008).
# Tests used:
# Assay type in all cases: in vivo, rat
# [1] = test system: ovariectomized (OVX) rats; experiment: Experiment III: bone mineral density and bone mineral content (DEXA)
# Protocol: (§1) After five days of acclimatization, study animals were randomly assigned to one of 15 groups (n=10/group) and placed in individual cages. Rats were either sham-operated (SHAM) or ovariectomized (OVX) and fed casein-based diets for forty days. To ensure that sufficient bone loss has occurred in the OVX animals, bone mineral density was assessed via Dual Energy X-ray Absorptiometry (DEXA) prior to treatment. Groups 1 and 2 were fed casein-based diets throughout the entire length of the study and served as the control groups. Treatments were initiated for Groups 3-15 forty days post ovariectomy surgery and followed for 60 days. Bone mineral density was assessed before and after treatments. Two days prior to the termination of the study, rats were placed in individual metabolic cages and urine was collected from 18:00 h-6:00 h. During this period, the rats had no access to food. Urine was collected in acid-washed tubes, acidified with 0.03 ml of 6 mol/L of HCl per ml of urine and the total volume was measured. At the end of the study, the rats were anesthetized with ketomine and xylazine (intraperitoneally; 100 mg and 5 mg/kg body weight, respectively) and exsanguinated. Blood was collected, serum separated and aliquoted in small samples. All urine and plasma samples were frozen at −20° C. until analyses. Femurs and 3-5 lumbar spine were dissected out for bone analyses. Initial and weekly body weights were measured. Sham animals were fed ad libitum and their precise food intakes were measured every three days. Before each feeding, the food remaining was weighed and the amount ingested was calculated. Rats in the other groups were pair-fed to the mean intake of the sham animals and had free access to deionized water.
# (§2) The design was a randomized, prospective, single-blind, positive controlled, parallel study. Control groups were fed a casein-based diet. Treatment groups were fed semi-purified diets containing casein, fructooligosaccharides, whole dried plum powder or dried plum polyphenol solids, dried plum juice solids, dried plum puree solids, dried plum skin solids or raisin solids or fig solids or date solids or blueberry solids or HMB. The treatment groups are outlined in following table:
# (§3) One hundred fifty, (n=10/group) ninety day old Harlan Sprague-Dawley, 210 gm, female rats were purchased from Harlan Sprague Dawley Inc. (Indianapolis, Ind.). Upon arrival at the institution, rats were individually housed in stainless steel wire mesh cages in an environmentally controlled animal laboratory at 25° C. with a 12 h light-dark cycle. The rats had free access to deionized water and semi-purified diets. They were handled according to National Institutes of Health guidelines for humane treatment of experimental animals.
# The composition of the semi-purified casein-based diets are described in the following table. To ensure equivalency, the diets were assayed for carbohydrate, protein, fat, calcium and phosphorus content prior to the feeding protocol. All diets were prepared to be isonitrogenous, isocaloric and equivalent in calcium and phosphorus content. The diets consisted of approximately 22% protein, 67% carbohydrate and 11% fat. The treatment diets also contained 7.5% or 5% (w/w) dried plum powder (Sunsweet Growers, Inc., Pleasanton, Calif.), or 7.5% (w/w) dried plum solids from juice concentrate (Sunsweet Growers, Inc., Pleasanton, Calif.), or 7.5% (w/w) dried plum solids from puree (Sunsweet Growers, Inc., Pleasanton, Calif.), or 7.5% (w/w) dried plum solids from pulp/skins (Sunsweet Growers, Inc., Pleasanton, Calif.), or dried plum polyphenols equivalent to 7.5% (w/w) dried plum powder, or 7.5% (w/w) raisin solids (Mid America), or 7.5% (w/w) fig solids (Mid America), or 7.5% (w/w) date solids (Mid America), or 7.5% (w/w) blueberry solids (Mid America), or 0.25% (w/w) HMB (Metabolic Technologies, Inc., Ames, Iowa) and 5% or 2% (w/w) short chain fructooligosaccharides (NutraFlora®, FOS Golden Technologies, Inc). […]
# [2] = test system: ovariectomized (OVX) rats; experiment: Experiment III: micro-computed tomography
# Protocol: as §1, §2, §3
# The composition of the semi-purified casein-based diets are described in the following table. To ensure equivalency, the diets were assayed for carbohydrate, protein, fat, calcium and phosphorus content prior to the feeding protocol. All diets were prepared to be isonitrogenous, isocaloric and equivalent in calcium and phosphorus content. The diets consisted of approximately 22% protein, 67% carbohydrate and 11% fat. […]
# [3] = Experiment III: body weight gain, fat gain and food intake
# Protocol: (§4) After five days of acclimatization, study animals were randomly assigned to one of 15 groups (n=10/group) and placed in individual cages. Rats were either sham-operated (SHAM) or ovariectomized (OVX) and fed casein-based diets for forty days. To ensure that sufficient bone loss has occurred in the OVX animals, bone mineral density was assessed via Dual Energy X-ray Absorptiometry (DEXA) prior to treatment. Groups 1 and 2 were fed casein-based diets throughout the entire length of the study and served as the control groups. Treatments were initiated for Groups 3-15 forty days post ovariectomy surgery and followed for 60 days. Bone mineral density was assessed before and after treatments. […] Urine was collected in acid-washed tubes, acidified with 0.03 ml of 6 mol/L of HCl per ml of urine and the total volume was measured. […] Initial and weekly body weights were measured. Sham animals were fed ad libitum and their precise food intakes were measured every three days. Before each feeding, the food remaining was weighed and the amount ingested was calculated. […]
# (§5) The composition of the semi-purified casein-based diets are described in the following table. […] Sham animals were fed ad libitum and their precise food intakes were measured every three days. Before each feeding, the food remaining was weighed and the amount ingested was calculated. […]
# [4] = test system: ovariectomized (OVX) rats; experiment: Experiment III: serum, urine and bone mineral and biochemical measures
# Protocol: as §4, §5
smiles,measurement,setting,value
"CC(C)(O)CC(=O)O [HMB, beta-hydroxy beta methylbutyrate]",effects on BMD,[1],no significant effects
same,reversal of osteopenia,[1],did not reverse established osteopenia
same,Bone mineral content (LS Mean ± SE) Femur,[1]; OVX rats,0.4155 ± 0.00996
same,Bone mineral content (LS Mean ± SE) Spine,[1]; OVX rats,0.1187 ± 0.00419
same,Bone mineral content (LS Mean ± SE) Whole body,[1]; OVX rats,9.7590 ± 0.1323
same,Bone mineral density (Mean ± SE) Femur,[1]; OVX rats,0.2198 ± 0.00293b
same,Bone mineral density (Mean ± SE) Spine,[1]; OVX rats,0.2341 ± 0.0035bc
same,Change in Bone mineral density (from Baseline) Whole body,"[1]; OVX rats, baseline to final",0.00298 ± 0.00144ab
same,Bone mineral density (Mean ± SE) Whole body,"[1]; OVX rats, casein-based diets",0.1599 ± 0.0016b
same,Bone Volume/Total Volume (Ranked) Mean ± SE,[2],0.1141 ± 0.00658b
same,Connective Density (Ranked) Mean ± SE,[2],32.865 ± 2.472b
same,Structural Model Index (Ranked) Mean ± SE,[2],1.931 ± 0.04093a
same,Trabecular No. (Ranked) Mean ± SE,[2],1.649 ± 0.078c 1/mm
same,Trabecular separation (Ranked) Mean ± SE,[2],0.6555 ± 0.03361a mm
same,Body Weight Gain during Treatment period Mean ± SE,"[3]; OVX rats, pair-fed to SHAM",29.0 ± 6.9
same,fat gain during the treatment period,[3]; compared to OVX-control,significantly less fat gain
same,Serum IGF-1 levels compared to OVX-control,[4],significant increases
